Read-outs that look alike come from different tables or passages of the source. Blank lines part the entries; values can stand above or below the compound they belong to.
What was measured:
[1] = biological target: T1, NSD2 (Homo sapiens, UniProt O96028); experiment: Validation of mechanism of action: pretreatment rescue of LLC0424-mediated NSD2 degradation; assay type: cell-based
T1 sequence (O96028 211-350 limits assumed): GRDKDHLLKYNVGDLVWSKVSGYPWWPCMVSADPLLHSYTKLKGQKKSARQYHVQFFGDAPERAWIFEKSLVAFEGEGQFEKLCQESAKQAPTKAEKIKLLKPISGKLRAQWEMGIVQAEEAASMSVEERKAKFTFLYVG

[2] = biological target: T2, NSD2 (Homo sapiens, UniProt O96028); experiment: Compound screening: NSD2 degradation by immunoblotting in VCaP cells; details: 24 h; for % Degradation: 2 μM, VCaP cells, immunoblotting; for Dmax at 2 µM: VCaP
T2 sequence (O96028 1-1365): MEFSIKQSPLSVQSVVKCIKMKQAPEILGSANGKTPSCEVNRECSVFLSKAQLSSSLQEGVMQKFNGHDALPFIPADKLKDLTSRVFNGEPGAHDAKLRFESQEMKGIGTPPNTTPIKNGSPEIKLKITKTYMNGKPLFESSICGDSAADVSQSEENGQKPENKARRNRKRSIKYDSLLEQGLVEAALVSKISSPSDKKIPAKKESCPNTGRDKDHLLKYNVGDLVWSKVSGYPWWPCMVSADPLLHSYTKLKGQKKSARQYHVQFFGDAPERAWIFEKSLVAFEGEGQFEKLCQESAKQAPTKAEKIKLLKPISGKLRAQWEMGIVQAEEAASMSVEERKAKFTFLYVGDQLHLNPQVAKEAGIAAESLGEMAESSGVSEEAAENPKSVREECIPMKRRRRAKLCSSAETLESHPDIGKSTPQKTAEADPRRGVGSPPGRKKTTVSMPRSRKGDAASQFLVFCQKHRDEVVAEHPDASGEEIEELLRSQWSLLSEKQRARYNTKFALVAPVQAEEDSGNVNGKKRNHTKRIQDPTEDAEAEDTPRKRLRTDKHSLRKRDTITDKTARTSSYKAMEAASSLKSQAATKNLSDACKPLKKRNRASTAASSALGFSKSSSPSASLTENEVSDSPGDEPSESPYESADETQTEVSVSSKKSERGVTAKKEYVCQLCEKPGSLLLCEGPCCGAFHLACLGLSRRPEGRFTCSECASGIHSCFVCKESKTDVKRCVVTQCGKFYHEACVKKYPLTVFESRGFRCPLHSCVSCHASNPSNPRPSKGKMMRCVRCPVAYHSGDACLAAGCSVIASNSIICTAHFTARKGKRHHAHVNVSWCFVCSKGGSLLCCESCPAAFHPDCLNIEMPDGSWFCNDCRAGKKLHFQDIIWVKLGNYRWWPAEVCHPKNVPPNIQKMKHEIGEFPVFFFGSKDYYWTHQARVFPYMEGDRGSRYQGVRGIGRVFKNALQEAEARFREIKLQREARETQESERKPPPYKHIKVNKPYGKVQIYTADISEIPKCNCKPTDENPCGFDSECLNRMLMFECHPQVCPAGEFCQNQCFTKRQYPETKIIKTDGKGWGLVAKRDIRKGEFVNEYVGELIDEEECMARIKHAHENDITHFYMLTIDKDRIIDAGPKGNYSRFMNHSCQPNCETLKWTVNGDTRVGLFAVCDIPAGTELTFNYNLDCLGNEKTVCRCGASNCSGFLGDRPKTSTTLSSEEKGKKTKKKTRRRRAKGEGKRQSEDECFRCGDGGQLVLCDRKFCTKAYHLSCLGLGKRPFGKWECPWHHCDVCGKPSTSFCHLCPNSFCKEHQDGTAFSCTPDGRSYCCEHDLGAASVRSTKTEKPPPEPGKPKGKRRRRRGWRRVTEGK
Description: After treatment, the cultured cells were collected and rinsed with phosphate-buffered saline (PBS) in room temperature. The cells were treated with RIPA buffers (ThermoFisher Scientific) supplemented with Halt Protease and Phosphatase Inhibitor Cocktail (ThermoFisher Scientific). After sonication and centrifugation, the total amount of protein in the cell lysates was measured by Pierce Bovine Serum Albumin Standard Pre-Diluted Set (ThermoFisher Scientific). […] After incubated with HRP-conjugated secondary antibodies, the membranes were developed with ECL Prime Western Blotting Detection Reagent (cytiva) and imaged on Odyssey Fc Imager (LiCOR Biosciences).
Western blot was then performed as previously described to detect NSD2 degradation.

[3] = biological target: T3, NSD2 (both long and short isoforms) (Homo sapiens, UniProt O96028); experiment: NSD2 degradation by immunoblotting in ALL cell lines RPMI-8402 and SEM (NSD2 E1099K); assay type: cell-based; details: RPMI-8402 and SEM cells; 0.5 and 2 μM for 24 h or 2 μM for 12 and 24 h
T3 sequence (O96028 211-350 limits assumed): T1 sequence (O96028 211-350 limits assumed)
Description: As previous studies have shown that ALL cell lines with NSD2 gain-of-function mutation are more dependent on NSD2 regarding H3K36me2 level and cell proliferation,[7],[8] we further characterized LLC0424 in ALL cell lines with NSD2 E1099K gain-of-function mutation (RPMI-8402 and SEM). We first treated these cells with LLC0424 with different concentrations for 24 h. […] In addition, we compared the degradation efficiency of LLC0424 with the two previously published NSD2 degraders 6 and 7 at different concentrations and time points.
After treatment, the cultured cells were collected and rinsed with phosphate-buffered saline (PBS) in room temperature. The cells were treated with RIPA buffers (ThermoFisher Scientific) supplemented with Halt Protease and Phosphatase Inhibitor Cocktail (ThermoFisher Scientific). After sonication and centrifugation, the total amount of protein in the cell lysates was measured by Pierce Bovine Serum Albumin Standard Pre-Diluted Set (ThermoFisher Scientific). After mixed with LDS-sample buffer (Invitrogen) supplemented with Sample Reducing Agent (Invitrogen) and heated in 70 °C for 10 min, equal amount of protein was loaded into NuPAGE 4–12%, Bis-Tris Protein Gel (ThermoFisher Scientific) or NuPAGE 3–8%, Tris-Acetate Protein Gel (ThermoFisher Scientific), and blotted with primary antibodies. After incubated with HRP-conjugated secondary antibodies, the membranes were developed with ECL Prime Western Blotting Detection Reagent (cytiva) and imaged on Odyssey Fc Imager (LiCOR Biosciences).

[4] = system: NSD2; design: method as in PMID 36976643; details: U2OS cells, 24 h treatment; cited from earlier work

Compound: CC(C)C[C@H](NC(=O)[C@H](Cc1ccccc1)NC(=O)c1cnccn1)B(O)O [bortezomib]
- effect of pretreatment on NSD2 protein reduction induced by LLC0424 ([1]; RPMI-8402 cells, 2 μM LLC0424): rescued the NSD2 protein reduction induced by LLC0424

Compound: NCCCCCCNC(=O)c1ccc(NC(=O)c2ccc(CN(C(=O)c3ccc4c(c3)OCC(=O)N4)C3CC3)cc2)cc1 [compound 7, reference compound]
- % Degradation [2]: 30%
- NSD2 degradation, comparison of degraders [3]: much less active
- DC50 [4]: 350 nM
- Dmax [4]: 79%

Compound: O=C1CCC(N2C(=O)c3ccccc3C2=O)C(=O)N1 (centres unmarked) [thalidomide]
- effect of pretreatment on LLC0424-mediated NSD2 degradation ([1]; RPMI-8402 and SEM cells, pretreated 2 h, then 2 μM LLC0424 for 12 h): reversed the LLC0424-mediated NSD2 degradation

More lines, now with the values ahead:

- % Degradation [2]: 11%
- NSD2 degradation, comparison of degraders [3]: much less active
Compound: O=C(CNc1cccc2c1C(=O)N(C1CCC(=O)NC1=O)C2=O)NCCCOc1ccc(NC(=O)c2ccc(CN(C(=O)c3ccc4c(c3)OCC(=O)N4)C3CC3)cc2)nc1 (centres unmarked) [compound 6, reference compound]

- % Degradation [2]: significant potency loss
- Dmax at 2 µM ([2]; read-out: 2.0 μM Degradation % (VCaP)): 48%
- Dmax at 2 µM ([2]; read-out: % Degradation): 48%
Compound: O=C1CCC(N2C(=O)c3ccc(NC4CCN(C(=O)c5ccc(NC(=O)c6ccc(CN(C(=O)c7ccc8c(c7)OCC(=O)N8)C7CC7)cc6)cc5)CC4)cc3C2=O)C(=O)N1 (centres unmarked) [compound 10k, N-Cyclopropyl-N-(4-((4-(4-((2-(2,6-dioxopiperidin-3-yl)-1,3-dioxoisoindolin-5-yl)amino)piperidine-1-carbonyl)phenyl)carbamoyl)benzyl)-3-oxo-3,4-dihydro-2H-benzo[b][1,4]oxazine-7-carboxamide]
